Test results as given in patent US20200281923A1, “USE OF PARP INHIBITOR IN TREATING CHEMOTHERAPY-RESISTANT OVARIAN CANCER OR BREAST CANCER” (JIANGSU HENGRUI MEDICINE CO., LTD., priority 2017, published 2020).

Legend:
[1] = test system: advanced prostate cancer; details: advanced prostate cancer patients with DNA repair gene mutations; phase II clinical trial; cited from earlier work
[2] = test system: recurrent ovarian cancer; assay: Phase I clinical trial of compound A alone in recurrent chemotherapy-resistant ovarian cancer; type: in vivo, human; details: daily dose of 120 mg
Source text: Objective response rate (ORR) refers to the proportion of patients whose tumor shrinks to a certain extent and remains for a certain period of time, including cases of CR and PR. The response evaluation criteria in solid tumors (RECIST 1.1 criteria) are employed to assess tumor objective response. The subject must have measurable tumor lesions at baseline. The efficacy assessment criteria are classified into complete response (CR), partial response (PR), stable disease (SD), and progressive disease (PD) according to the RECIST 1.1 criteria.
Disease control rate (DCR) refers to the percentage of confirmed cases of complete response, partial response and stable disease (≥eight weeks) in patients with evaluable efficacy.
In the phase I clinical trial, the dose of compound A was 120 mg/d and above. 23 patients with recurrent ovarian cancer diagnosed by histology or cytology, who had received standard treatment failure, were enrolled. These patients had been subjected to at least second-line systemic chemotherapy during the recurrence and metastasis stage of ovarian cancer. The chemotherapy regimen was a platinum-based chemotherapy regimen. These patients were platinum-based treatment-resistant, or were intolerant to the chemotherapy toxicity during the treatment.
Compound A: the initial dose was 10 mg, 20 mg, 40 mg, 60 mg, 80 mg, 100 mg or 150 mg, administrated orally twice a day; or 120 mg or 160 mg, administrated orally once a day.

[3] = platinum-resistant ovarian cancer without BRCA mutations, 13 cases
[4] = recurrent platinum-resistant ovarian cancer, 22 evaluable cases out of 23

| Structure (SMILES) | response [1] | disease control rate (DCR) [2, 3] | objective response rate (ORR) [2, 3] | disease control rate (DCR) [2, 4] | objective response rate (ORR) [2, 4] |
| --- | --- | --- | --- | --- | --- |
| O=C(c1cc(Cc2n[nH]c(=O)c3ccccc23)ccc1F)N1CCN(C(=O)C2CC2)CC1 [Olaparib] | 88% |  |  |  |  |
| O=C(c1cc(Cc2n[nH]c(=O)c3ccccc23)ccc1F)N1CCn2nc(C(F)(F)F)nc2C1 [compound A] |  | 84.6% | 15.4% | 81.8% | 18.2% |
